The record followed here is patent US8658646B2, “Pyrrolopyrazine kinase inhibitors” (Hoffmann-LaRoche Inc., priority 2011, dated 2014).

Counter-ions that a name gives are not always drawn. Where only a bound is given, the exact number is not on record here.

For the experiment, the target named is T1, recombinant human SYK360-635 (Homo sapiens, UniProt P43405).
T1 construct: made in house
Nature of the experiment: Determination of IC50 of Spleen Tyrosine Kinase (SYK) inhibition, 33P ATP filtration assay. Type of experiment: biochemical. The following applies: SYK aa 360-635 0.5 nM; ATP 20 μM, peptide 5 μM, 0.1% BSA; read-out: SYK_ENZYME_FILTRATION/v1, BSA.

Method: All concentrations were final in the reaction mixture and all incubations were carried at room temperature. […] SYK Assay Information Determination of IC50 of Spleen Tyrosine Kinase (SYK) Inhibition:
SYK kinase assay is a standard kinase assay adapted to a 96 well plate format. This assay is performed in 96-well format for IC50 determination with 8 samples which represented 10 half log dilutions and a 40 μL reaction volume. The assay measures the incorporation of radiolabeled ^33P γATP into an N-terminally biotinylated peptide substrate, derived from naturally occurring phosphoacceptor consensus sequence (Biotin-11aa DY*E). […] Experimental Method:
DMSO and the mixture was incubated for 10 min at RT.
The kinase reaction was initiated by the addition of 10 μL 4× substrate cocktail containing the DYE peptide substrate [0 or 5 μM], ATP [20 μM] and ^33PγATP [2 μCi/r×n]. After incubation at 30° C. for 15 min, the reaction was terminated by the transfer of 25 μL pf the reaction sample to a 96 well 0.65 μm Millipore MADVNOB membrane/plate containing 200 μL 5 mM EDTA and 20% Streptavidine coated beads in PBS.
The unbound radionucleotides were washed under vacuum with 3×250 μL 2M NaCl; 2×250 μL 2M NaCl+1% phosphoric acid; 1×250 μL H2O. After the last wash membrane/plates were transferred to an adaptor plate, heat dried for 15 min at 60° C., and 50 μL scintillation cocktail was added to each well and 4 h later the amount of radioactivity was counted in a top counter.

For `CC(C)(CO)NC(=O)c1c[nH]c2ncc(-n3ncc4cc(F)ccc43)nc12` [Example I-320, 2-(5-Fluoro-indazol-1-yl)-5H-pyrrolo[2,3-b]pyrazine-7-carboxylic acid (2-hydroxy-1,1-dimethyl-ethyl)-amide], the IC50 came to 56.7 nM.

With `Cn1nc(-c2cnc3[nH]cc(C(=O)NC(C)(C)CN)c3n2)c2ccc(F)cc21` [Example I-379, 2-(6-Fluoro-1-methyl-1H-indazol-3-yl)-5H-pyrrolo[2,3-b]pyrazine-7-carboxylic acid (2-amino-1,1-dimethyl-ethyl)-amide], the IC50 came to 145 nM.

In the case of `Cn1nc(-c2cnc3[nH]cc(C(=O)N[C@]4(C)CC[C@@H](N)CC4)c3n2)c2ccc(F)cc21` [Example I-416, 2-(6-Fluoro-1-methyl-1H-indazol-3-yl)-5H-pyrrolo[2,3-b]pyrazine-7-carboxylic acid (trans-4-amino-1-methyl-cyclohexyl)-amide], the IC50 is 1.95 nM.

Consider `CC(C)(C)NC(=O)c1c[nH]c2ncc(-n3ncc4cc(F)ccc43)nc12` [Example I-326, 2-(5-Fluoro-indazol-1-yl)-5H-pyrrolo[2,3-b]pyrazine-7-carboxylic acid tert-butylamide], for which the IC50 is 43.4 nM.

Take `CC(C)NC(=O)c1c[nH]c2ncc(-c3nn(C)c4ccc(C5CC5)cc34)nc12` [Example I-195, 2-(5-Cyclopropyl-1-methyl-1H-indazol-3-yl)-5H-pyrrolo[2,3-b]pyrazine-7-carboxylic acid isopropylamide]: the IC50 came out at 12 nM.

As to `Cn1nc(-c2cnc3[nH]cc(C(=O)NC4(CO)CC4)c3n2)c2ccc(F)cc21` [Example I-374, 2-(6-Fluoro-1-methyl-1H-indazol-3-yl)-5H-pyrrolo[2,3-b]pyrazine-7-carboxylic acid (1-hydroxymethyl-cyclopropyl)-amide], the IC50 stood at 7.65 nM.

In the case of `Cc1ccc2cnn(-c3cnc4[nH]cc(C(=O)NC(C)(C)C)c4n3)c2c1` [Example I-331, 2-(6-Methyl-indazol-1-yl)-5H-pyrrolo[2,3-b]pyrazine-7-carboxylic acid tert-butylamide], the IC50 was found to be 69.5 nM.

For the molecule `CC(C)(C)NC(=O)c1c[nH]c2ncc(-c3nn(CC(F)(F)F)c4cc(F)ccc34)nc12` [Example I-418, 2-[6-Fluoro-1-(2,2,2-trifluoro-ethyl)-1H-indazol-3-yl]-5H-pyrrolo[2,3-b]pyrazine-7-carboxylic acid tert-butylamide], the IC50 is 19.9 nM.

`Cn1nc(-c2cnc3[nH]cc(C(=O)NC(C)(C)C)c3n2)c2cccnc21` [Example I-373, 2-(1-Methyl-1H-pyrazolo[3,4-b]pyridin-3-yl)-5H-pyrrolo[2,3-b]pyrazine-7-carboxylic acid tert-butylamide]: the IC50 is 19 nM.

Regarding `CC(C)NC(=O)c1c[nH]c2ncc(-c3nn(Cc4ccccc4)c4cc(Cl)ccc34)nc12` [Example I-308, 2-(1-Benzyl-6-chloro-1H-indazol-3-yl)-5H-pyrrolo[2,3-b]pyrazine-7-carboxylic acid isopropylamide], the IC50 came out at 860 nM.

With `Cn1nc(-c2cnc3[nH]cc(C(=O)NC(C)(C)CCN)c3n2)c2ccc(F)cc21` [Example I-415, 2-(6-Fluoro-1-methyl-1H-indazol-3-yl)-5H-pyrrolo[2,3-b]pyrazine-7-carboxylic acid (3-amino-1,1-dimethyl-propyl)-amide], the IC50 is 322 nM.

For the molecule `Cn1nc(-c2cnc3[nH]cc(C(=O)NCC4(O)CNC4)c3n2)c2ccc(F)cc21` [Example I-463, 2-(6-Fluoro-1-methyl-1H-indazol-3-yl)-N-((3-hydroxyazetidin-3-yl)methyl)-5H-pyrrolo[3,2-b]pyrazine-7-carboxamide trifluoroacetate], the IC50 came out at 5.42 nM.

Turning to `Cn1nc(-c2cnc3[nH]cc(C(=O)NC(C)(C)C)c3n2)c2ccc(OC(F)(F)F)cc21` [Example I-370, 2-(1-Methyl-6-trifluoromethoxy-1H-indazol-3-yl)-5H-pyrrolo[2,3-b]pyrazine-7-carboxylic acid tert-butylamide], the IC50 worked out at 41 nM.

Consider `CC(C)(N)CCCn1nc(-c2cnc3[nH]cc(C(=O)NC(C)(C)C)c3n2)c2cc(OC(F)F)ccc21` [Example I-454, 2-(1-(4-Amino-4-methylpentyl)-5-(difluoromethoxy)-1H-indazol-3-yl)-N-tert-butyl-5H-pyrrolo[3,2-b]pyrazine-7-carboxamide trifluoroacetate], for which the IC50 is 7.6 nM.

Regarding `CC(C)(CO)NC(=O)c1c[nH]c2ncc(-n3ncc4cc(Cl)ccc43)nc12` [Example I-318, 2-(5-Chloro-indazol-1-yl)-5H-pyrrolo[2,3-b]pyrazine-7-carboxylic acid (2-hydroxy-1,1-dimethyl-ethyl)-amide], the IC50 was 56.8 nM.

As to `Cn1nc(-c2cnc3[nH]cc(C(=O)NC(C)(C)C4CC4)c3n2)c2ccc(Cl)cc21` [Example I-401, 2-(6-Chloro-1-methyl-1H-indazol-3-yl)-5H-pyrrolo[2,3-b]pyrazine-7-carboxylic acid (1-cyclopropyl-1-methyl-ethyl)-amide], the IC50 worked out at 18.5 nM.

Turning to `Cn1nc(-c2cnc3[nH]cc(C(=O)NC(C)(C)C)c3n2)c2ccc(C#N)cc21` [Example I-394, 2-(6-Cyano-1-methyl-1H-indazol-3-yl)-5H-pyrrolo[2,3-b]pyrazine-7-carboxylic acid tert-butylamide], the IC50 turned out to be 4.38 nM.

Take `CC(C)(C)NC(=O)c1c[nH]c2ncc(-c3ncn4cc(Cl)ccc34)nc12` [Example I-356, 2-(6-Chloro-imidazo[1,5-a]pyridin-1-yl)-5H-pyrrolo[2,3-b]pyrazine-7-carboxylic acid tert-butylamide]: the IC50 is 8.92 nM.

With `Cn1nc(-c2cnc3[nH]cc(C(=O)NC4(C)CC4)c3n2)c2ccc(Cl)cc21` [Example I-395, 2-(6-Chloro-1-methyl-1H-indazol-3-yl)-5H-pyrrolo[2,3-b]pyrazine-7-carboxylic acid (1-methyl-cyclopropyl)-amide], the IC50 came out at 2.27 nM.

Regarding `C[C@H](NC(=O)c1c[nH]c2ncc(-c3nn(C)c4cc(F)ccc34)nc12)c1ncc(C(F)(F)F)[nH]1` [Example I-358, 2-(6-Fluoro-1-methyl-1H-indazol-3-yl)-5H-pyrrolo[2,3-b]pyrazine-7-carboxylic acid [(S)-1-(5-trifluoromethyl-1H-imidazol-2-yl)-ethyl]-amide], the IC50 is 107 nM.

With `Cn1nc(-c2cnc3[nH]cc(C(=O)NC(C)(C)C)c3n2)c2ccc(S(C)(=O)=O)cc21` [Example I-270, 2-(6-Methanesulfonyl-1-methyl-1H-indazol-3-yl)-5H-pyrrolo[2,3-b]pyrazine-7-carboxylic acid tert-butylamide], the IC50 came out at 16.4 nM.

For the molecule `Cn1nc(-c2cnc3[nH]cc(C(=O)NCC4CC4)c3n2)c2ccc(Cl)cc21` [Example I-317, 2-(6-Chloro-1-methyl-1H-indazol-3-yl)-5H-pyrrolo[2,3-b]pyrazine-7-carboxylic acid cyclopropylmethyl-amide], the IC50 was 11.3 nM.

For `Cn1nc(-c2cnc3[nH]cc(C(=O)Nc4cccc(C#N)c4)c3n2)c2ccc(Cl)cc21` [Example I-404, 2-(6-Chloro-1-methyl-1H-indazol-3-yl)-5H-pyrrolo[2,3-b]pyrazine-7-carboxylic acid (3-cyano-phenyl)-amide], the IC50 was above 10000 nM.
